Experimental data: patent EP0291663A2, “Tert.-butyl amino-3-(phenyl-2'-phenoxy)-1-propanol-2 for the control of heart arrhythmia” (priority 1987, dated 1988)
Where a name gives a salt, the structure may show the parent alone.

Columns and labels:
ventrikuläre Arrhythmien = type: in vivo, Hund; settings: dog
Excerpt: Dies wird auch durch in vivo Experimente bestätigt. Die antiarrhythmische Wirksamkeit der Verbindung wurde an Hunden nach H. Glücker et al., Arzneim.Forsch. (Drug Ros.) Bd. 35 (II), 9 (1985) S.1387-1393 geprüft. Die […] wurde mindestens 2 Stunden lang occludiert. Nach dem Auftreten konstanter […] die Verbindungen intravenös injiziert.

in vivo = settings: rat
Hunde-Purkinye Fasern = assay: Electrophysiology on isolated dog Purkinje fibres (Vmax, action potential duration); type: cell-based, Hund; settings: for Rate Factor von Vmax: (% of control Vmax at cycle length 2000 mSek.)/(% of control Vmax at cycle length 500 mSek.) at C20Vmax
Excerpt: (§1) Überraschenderweise wurde gefunden, daß das tert.-Butylamino-3-(phenyl-2ʹ-phenoxy)-1-propanol 2 ("Bipranol") der Formel [drawing 1] und seine Salze mit Säuren keine β-sympatholytische Wirkung, sondern eine starke antiarrhythmische Wirkung besitzen. Die elektrophysiologischen und hämodynamischen Wirkungen wurden in vitro an zwei verschiedenen isolierten Herzpräparaten und in vivo (Hund) experimentell untersucht. In Tabelle I sind Ergebnisse pharmakologischer Untersuchungen mit Diprafenon, Propafenon und Bipranol zusammengefaßt.
(§2) C20 Vmax: Konzentration, die Vmax bei einer Zykluslänge von 1000 mSek. um 20 % verringert. C20 CF: Konzentration, die die Kontraktion des Papillarmuskels um 20 % verringert. Rate Factor von Vmax: (% des Kontrollwertes Vmax bei einer Zykluslänge von 2000 mSek.)/(% des Kontrollwertes Vmax bei einer Zykluslänge von 500 mSek.) bei C20Vmax. C20APD95: Die Konzentration, die das APD95 des normalen Aktionspotentials um 20 % verlängert. Sf : Sicherheitsfaktor, errechnet als Rate Factor von Vmax × (C20 CF/C20 Vmax).
(§3) In in vitro-Experimenten an isolierten Herzpräparaten lag die leistungsverzögernde und damit antiarrhythmische Wirkung (C20 Vmax) bei einer Dosis von 2,2 µMol Bipranol. Diese Dosierung entspricht einer antiarrhythmischen wirksamen Dosis von etwa 3 mg/kg bei in vivo Versuchen an Hunden. […] Diese Konzentration ist ungefähr 14 mal höher als für eine antiarrhythmische Wirkung gebraucht wird.

[1] = test system: Meerschweinchen-Papillarmuskel; assay: Contraction of isolated guinea pig papillary muscle (safety factor, negative inotropy); type: cell-based; settings: for Sf (Sicherheitsfaktor): Rate Factor von Vmax × (C20 CF/C20 Vmax)
Excerpt: as §1, §2

β-Rezeptor = type: in vivo, Hund
Excerpt: Als Parameter zur Bestimmung der β-Rezeptor-blockierenden Wirkung am narkotisierten Hund dienten dP/dt als Maß für die Kontraktionskraft des Herzens, sowie cardiac output (Herzzeitvolumen). […] Im Gegensatz wirken β-Blocker immer negativ-inotrop. […] Die Beobachtungen bei dieser Dosis sind wahrscheinlich Folge einer nicht spezifischen toxischen Wirkung und beruhen nicht auf einer β-sympatolytischen Wirkung.

[2] = test system: Meerschweinchen-Vorhofmuskel; assay: Antagonism of the positive inotropic effect of adrenaline on isolated guinea pig atrial muscle; type: cell-based; settings: highest test concentration 30 µMol
Protocol: as §3

[3] = concentration that prolongs APD95 of the normal action potential by 20 %
[4] = anaesthetised dog, up to 30 mg/kg

| Structure (SMILES) | Rate Factor von Vmax (Hunde-Purkinye Fasern) | C20APD95 (Hunde-Purkinye Fasern; [3]) | negativ-inotrope Nebenwirkung [1] | Sf (Sicherheitsfaktor) [1] | also measured |
| --- | --- | --- | --- | --- | --- |
| O=C(NCC1CCCCN1)c1cc(OCC(F)(F)F)ccc1OCC(F)(F)F (centres unmarked) [Flecainid, reference compound] | – | – | – | – | therapeutische Dosierung (ventrikuläre Arrhythmien; i.v., followed by 50 µg/kg/min): 2,4 mg/kg |
| CC(C)(C)NCC(O)COc1ccccc1-c1ccccc1 (centres unmarked) [Bipranol HCl, tert.-Butylamino-3-(phenyl-2ʹ-phenoxy)-1-propanol-2] | – | – | – | – | LD50 (in vivo; Ratte (iv)): 11 mg/kg; LD50 (in vivo; Ratte (oral)): 571 mg/kg |
| CCC(C)(C)NCC(O)COc1ccccc1C(=O)CCc1ccccc1 (centres unmarked) [Diprafenon] | 1,19 | nicht erreicht | deutlich negativer inotroper Effekt | 4,86 | – |
| CCCNCC(O)COc1ccccc1C(=O)CCc1ccccc1 (centres unmarked) [Propafenon] | 1,08 | nicht erreicht | – | 1,55 | – |
| CC(C)(C)NCC(O)COc1ccccc1-c1ccccc1 (centres unmarked) [Bipranol, tert.-Butylamino-3-(phenyl-2ʹ-phenoxy)-1-propanol-2] | 5 | – | keine nennenswerte negativ-inotrope Nebenwirkung | 9,09 | IC20 (Hunde-Purkinye Fasern; Canis lupus familiaris, purkinje, concentration that reduces Vmax by 20 % at cycle length 1000 mSek., isolated heart preparations, read-out: C20 Vmax): 2.2 µM; EC20 (Hunde-Purkinye Fasern; purkinje, concentration that prolongs APD95 of the normal action potential by 20 %, read-out: C20APD95): 7.2 µM; cardiac output (Herzzeitvolumen) (β-Rezeptor; [4]): nicht beeinflußt; dP/dt (Kontraktionskraft des Herzens) (β-Rezeptor; [4]): keine negativ-inotrope Wirkung; Mortality (β-Rezeptor; in vivo, iv, 30 mg/kg): starben alle Hunde; Abschwächung der positiv-inotropen Wirkung von 1 µMol Adrenalin [2]: geringe Abschwächung; Reduktion der ventrikulären Extrazystolen (ventrikuläre Arrhythmien; i.v., 1,6 mg/kg followed by 50 µg/kg/min): > 90% |
